Results published in patent US20260325506A1, “METHODS OF TREATING POST-TRAUMATIC STRESS DISORDER AND ALCOHOL USE DISORDER” (FLORIDA ATLANTIC UNIVERSITY RESEARCH CORPORATION, priority 2023, published 2026).
Entries after “also recorded” stand apart in the source; their conditions may differ.

Assays:
[1] = system: SPS induced anxiety-like behaviors in Sprague Dawley (SD) rats; assay: Elevated Plus Maze (EPM), SPS induced anxiety-like behaviors; assay type: in vivo; details: for Anxiety index (FIG. 3B): female SD rats (n=6, not yet fully powered)
Protocol: (§1) SPS procedure: 2 h of complete restraint in disposable plastic holders, followed by grouped (2-3 rats) forced swim for 20 min in a cylindrical tank (46 cm tall×20 cm in diameter) filled with 22-25° C. water to a depth of 30 cm. After 15 min recovery and drying period, rats are exposed to diethyl ether until loss of consciousness and left undisturbed (except for drug or vehicle injection) and alone for 7 days, after which they are pair housed. All rats are housed with soft bedding, observed for signs of pain or discomfort: weight loss, lack of grooming, or porphyrin staining; any such rats is excluded from study.
Elevated Plus Maze (EPM): Rats will be tested for anxiety-like behaviors. The percentage of open arm entries (number of entries into the open arms divided by total number of entries in both arms), time spent in the open arms, total distance traveled, and total time spent immobile are noted. The anxiety index (AI) is calculated where total exploration on the maze represents the total number of arm entries: Anxiety Index=1−[[(time spent in open arms/total time on the maze (300 sec))+(number of entries into open arms/total number of arm entries)]/2]. Each animal is tested at 9 and 30 days post-SPS.
(§2) Drug Treatment: PPL-138 (0.3 and 1 mg/kg) is dissolved in the same vehicle as 10 mg/kg SB (3% DMSO+97% of 0.5% hydroxypropyl cellulose (HPC)). Drug treatment (i.p.) begins immediately after exposure to ether and continues every other day thereafter. Ctr and SPS rats receive vehicle (3% DMSO+97% 0.5% HPC) injections.
Anxiety index reflects a combination of three anxiety-like behaviors.
(§3) Control (Ctr) and SPS-treated male and female SD rats are treated 3 times each week with Veh, PPL-138 (0.3 and 1 mg/kg, s.c.) or the NOP antagonist SB612111 (SB; 3 mg/kg, i.p.). […] SB alleviates TBI- and 6-OHDA Parkinson disease model-induced locomotor deficits and brain hypoxia.

[2] = system: SPS-induced allodynia in Sprague Dawley (SD) rats; assay: tactile sensitivity (allodynia), paw withdrawal threshold (PWT) after SPS; assay type: in vivo; details: for allodynia (PWT, FIG. 4A): male SPS rats; for paw withdrawal threshold, allodynia (FIG. 2A): male SD rats, 1 mg/kg i.p., days 14, 21 and 28, SPS vs SPS+PPL-138, p<0.05 (Tukey)
Protocol: as §1, §2
(§4) Degree of enhanced nociceptive sensitivity by SPS to tactile and thermal stimuli were reduced in this cohort likely a result of group housing during the first 7 days instead of our usual solo housing (FIG. 2). […] PPL-138 reduced serum N/OFQ levels compared to SPS (p<0.05 by Tukey's post-hoc test).
as §3
(§5) Sensitivity to tactile and thermal sensitivity in males and females was determined by paw withdrawal threshold to increasing pressure (PWT; tactile) and paw withdrawal latency to a thermal stimulus (PWL) (FIG. 4). There was a significant interaction between time and treatment for sensitivity to both tactile (A) and thermal (C) stimuli for males ([F (28, 228)=1.708, p=0.0182] and [F (28, 228)=4.276, p<0.0001]), respectively, as well as for thermal sensitivity (D) in females [F (28, 164)=2.286, p=0.0007]. […] Allodynia was reversed by 0.3 mg/kg PPL-138 and by SB in males, and by 1 mg/kg PPL-138 in females (#p<0.05). Thermal hyperalgesia was reversed by both doses of PPL-138 and SB in males, and by 1 mg/kg PPL-138 and SB in females.

[3] = system: SPS-induced thermal hyperalgesia in Sprague Dawley (SD) rats; assay: thermal sensitivity (hyperalgesia), paw withdrawal latency (PWL) after SPS; assay type: in vivo; details: for thermal hyperalgesia (PWL, FIG. 4D): female SPS rats; for thermal hyperalgesia (PWL, FIG. 4D) / thermal hyperalgesia (PWL, FIG. 4C): 28 days; for thermal hyperalgesia (PWL, FIG. 4C): male SPS rats
Protocol: as §1, §2, §4, §3, §5

[4] = system: TBI-induced locomotor deficits and brain hypoxia; details: cited from earlier work
[5] = system: 6-OHDA Parkinson disease model-induced locomotor deficits and brain hypoxia; details: cited from earlier work
[6] = system: neuropathy; details: models of neuropathy; cited from earlier work
[7] = system: irritable bowel syndrome (IBS); details: models of irritable bowel syndrome (IBS); cited from earlier work
[8] = system: N/OFQ; assay: serum N/OFQ levels after SPS; assay type: in vivo, Sprague Dawley (SD) rats; details: end of pilot study, compared to SPS, p<0.05 (Tukey); ANOVA F (2, 12)=4.147, p=0.0421
Protocol: as §1, §2, §4

[9] = target: mu opioid receptor; details: all four members of the opioid receptor family; cited from earlier work
[10] = target: kappa opioid receptor; details: all four members of the opioid receptor family; cited from earlier work
[11] = target: delta opioid receptor; details: all four members of the opioid receptor family; cited from earlier work
[12] = target: NOP receptor; details: all four members of the opioid receptor family; cited from earlier work
[13] = system: mu opioid receptor; details: less than buprenorphine; cited from earlier work
[14] = system: NOP receptor; details: higher than buprenorphine; cited from earlier work
[15] = system: kappa receptor; details: PPL-138 like buprenorphine; cited from earlier work
[16] = system: delta receptor; details: PPL-138 like buprenorphine; cited from earlier work
[17] = system: SPS-induced allodynia and anxiety-like behaviors; details: less selective NOP receptor antagonist than SB; cited from earlier work

## Cc1cccc2c1CC[C@H](CN1CCC(c3c(Cl)cccc3Cl)CC1)C[C@@H]2O [SB612111]
[1]; SB 3 mg/kg i.p., day 9 post-SPS
  Anxiety index (FIG. 3B): significant effect
[1]; male SD rats, SB 3 mg/kg i.p., day 30 post-SPS
  Anxiety index (FIG. 3A): significant effects
[2]; SB 3 mg/kg i.p., 28 days, #p<0.05
  allodynia (PWT, FIG. 4A): reversed
[3]; SB 3 mg/kg i.p.
  thermal hyperalgesia (PWL, FIG. 4D): reversed
  thermal hyperalgesia (PWL, FIG. 4C): reversed
[4]
  brain hypoxia: alleviates
  locomotor deficits: alleviates
[5]
  brain hypoxia: alleviates
  locomotor deficits: alleviates
[6]
  antinociception: produces antinociception
[7]
  antinociception: produces antinociception

## O=C(CCc1ccccc1)O[C@@]12CCC(=O)[C@@H]3Oc4c(O)ccc5c4[C@@]31CCN(CC1CC1)[C@@H]2C5 [PPL-138, 14β-(3-phenylpropanoyl)-17-cyclopropylmethyl-7,8-dihydronoroxymorphinone]
[1]; PPL-138 1 mg/kg s.c., day 30 post-SPS
  Anxiety index (FIG. 3B): significant effect
[1]; female SD rats, overall statement
  anxiety-like behaviors (FIG. 3B): reduces
[1]; male SD rats, 1 mg/kg i.p., between groups (Ctr, SPS, SPS+PPL-138)
  distance travelled: no differences
[1]; male SD rats, 1 mg/kg i.p., days 9 and 30 post-SPS, treatment F (2,12)=5.066, p<0.05, PPL 138+SPS vs SPS *p<0.05, **p<0.01 (Tukey), 1 mg/kg
  open arm time (FIG. 1B): increased; also recorded: significant effect
[1]; male SD rats, 1 mg/kg i.p., days 9 and 30 post-SPS, treatment F (2,12)=9.912, p<0.005, PPL 138+SPS vs SPS *p<0.05, **p<0.01 (Tukey), 1 mg/kg
  anxiety index (FIG. 1A): reduced; also recorded: significant effect
[1]; male SD rats, 1 mg/kg i.p., days 9 and 30 post-SPS, treatment F (2,12)=11.99, p<0.005, PPL 138+SPS vs SPS *p<0.05, **p<0.01 (Tukey), 1 mg/kg
  open arm entries (FIG. 1C): increased; also recorded: significant effect
[1]; male SD rats, PPL-138 0.3 mg/kg s.c., day 30 post-SPS
  Anxiety index (FIG. 3A): significant effects
[1]; male SD rats, PPL-138 1 mg/kg s.c., day 9 post-SPS
  Anxiety index (FIG. 3A): significant effect
[1]; male SD rats, PPL-138 1 mg/kg s.c., day 30 post-SPS
  Anxiety index (FIG. 3A): significant effects
[1]; male SD rats, overall statement
  anxiety-like behaviors (FIG. 3A): reduces
[1]; males and females, overall conclusion
  development of PTSD-induced anxiety-like behaviors: reverses
[2]; SD rats, overall statement
  allodynia (FIG. 4): reduces
[2]; female SPS rats, PPL-138 1 mg/kg s.c., 28 days, #p<0.05
  allodynia (PWT, FIG. 4B): reversed
[2]; 1 mg/kg
  paw withdrawal threshold, allodynia (FIG. 2A): SPS rats had significantly lower paw withdrawal threshold
[2]; listed as PPL 138, 1 mg/kg
  paw withdrawal threshold, allodynia (FIG. 2A): reversed
[2]; PPL-138 0.3 mg/kg s.c., 28 days, #p<0.05
  allodynia (PWT, FIG. 4A): reversed
[2]; males and females, overall conclusion (tactile and thermal)
  development of PTSD-induced nociceptive sensitivity: reverses
[3]; SD rats, overall statement
  hyperalgesia (FIG. 4): reduces
[3]; PPL-138 1 mg/kg s.c.
  thermal hyperalgesia (PWL, FIG. 4D): reversed
[3]; male SD rats, 1 mg/kg i.p., treatment F (2, 12)=7.56, p<0.01
  thermal sensitivity (FIG. 2B): reversed
[3]; PPL-138 0.3 mg/kg s.c. (both doses)
  thermal hyperalgesia (PWL, FIG. 4C): reversed
[3]; PPL-138 1 mg/kg s.c. (both doses)
  thermal hyperalgesia (PWL, FIG. 4C): reversed
[8]
  serum N/OFQ levels: reduced
[9]
  Ki: < 10 nM
[10]
  Ki: < 10 nM
[11]
  Ki: < 10 nM
[12]
  Ki: < 10 nM
[13]
  efficacy at mu: very low efficacy
[14]
  partial agonist activity at NOP receptor: partial agonist
[15]
  activity at kappa receptor: antagonist
[16]
  activity at delta receptor: antagonist

## CO[C@@]12CC[C@@]3(C[C@@H]1[C@](C)(O)C(C)(C)C)[C@H]1Cc4ccc(O)c5c4[C@@]3(CCN1CC1CC1)[C@H]2O5 [buprenorphine, reference compound]
[15]
  activity at kappa receptor: antagonist
[16]
  activity at delta receptor: antagonist

## CCc1ccc(OCc2ccccc2C(=O)Nc2ccc3nc(C)cc(N)c3c2)cc1 [JTC-801]
[17]
  SPS-induced allodynia: reversed
  SPS-induced anxiety-like behaviors: reversed
